According to US4530791A, “β-Lactam antibiotics” (Kowa Co., Ltd., priority 1979, dated 1985):
In brackets after ≈: the same amount, converted by molar mass. Read-outs that look alike come from different tables or passages of the source. Each block holds one molecule with its values, some of them ahead of it.

Experiments:
Enterobacter cloacae 977 = assay: Antibacterial spectrum (minimum inhibitory concentration); type: cell-based
Text: (§1) The antibacterial spectra against various microorganisms are shown in Table 2 in comparison with those of aminobenzyl penicillin (AB-Pc) and cefoxitin (CFX).

[1] = system: Staphylococcus epidermidis 1228; assay: as above; type: cell-based
Text: as §1

Bacillus subtilis 6633 = assay: as above; type: cell-based
Text: as §1

Serratia marcescens NHL = assay: as above; type: cell-based
Text: as §1

Pseudomonas putida 5121 = assay: as above; type: cell-based
Text: as §1

[2] = system: Escherichia coli EC-59 (PC ase II); assay: as above; type: cell-based
Text: as §1

[3] = system: Escherichia coli EC-68 (PC ase IV); assay: as above; type: cell-based
Text: as §1

Citrobacter 24 (CS ase) [4] = assay: as above; type: cell-based
Text: as §1

[5] = system: Enterobacter aerogenes 972; assay: as above; type: cell-based; settings: Klebsiella aerogenes
Text: as §1

[6] = system: Pseudomonas aeruginosa A-3; assay: as above; type: cell-based; settings: A3
Text: as §1

Proteus rettgari 13501 = assay: as above; type: cell-based
Text: as §1

[7] = system: Excherichia coli NIHJ JC-2; assay: as above; type: cell-based
Text: as §1

[8] = system: Pseudomonas aeruginosa 10490; assay: as above; type: cell-based
Text: as §1

[9] = system: Escherichia coli EC-1 (PC ase I); assay: as above; type: cell-based
Text: as §1

[10] = system: Staphylococcus aureus 209P JC-1; assay: as above; type: cell-based
Text: as §1

[11] = system: Klebsiella pneumoniae 602; assay: as above; type: cell-based
Text: as §1

Proteus morganii 3168 = assay: as above; type: cell-based; settings: Morganella morganii
Text: as §1

Proteus inconstans Km115 = assay: as above; type: cell-based; settings: Providencia alcalifaciens
Text: as §1

Hafnia alvei 978 = assay: as above; type: cell-based
Text: as §1

Klebsiella 25 (PC ase) = assay: as above; type: cell-based
Text: as §1

Citrobacter 1 (PC ase) = assay: as above; type: cell-based
Text: as §1

Proteus vulgaris 874 = assay: as above; type: cell-based
Text: as §1

Klebsiella 32 (CS ase) = assay: as above; type: cell-based
Text: as §1

[12] = Stability: half-life period at different values of pH (ultraviolet absorption spectroscopy); type: physicochemical; settings: read-out: half-life period t1/2 (converted)
Text: (11) Stability: The half-life period at different values of pH are as follows: […]
pH 4.0-7.0: Mcllvaine's buffer solution (sodium phosphate-citric acid) pH 10.0: 0.1M sodium carbonate-sodium hydrogen carbonate buffer solution […]
Ultraviolet absorption spectroscopy
(9) Stability: The half-life period at different values of pH are as follows:
The solvent and measurement are the same as in the substance KA-6643-A.

[13] = molecular target: β-lactamase enzyme penicillin amidohydrolase EC 3.5.2.6; assay: β-Lactamase-inhibitory activity; type: biochemical; settings: method of C. Reading and M. Cole
Procedure: When using as β-lactamase enzyme penicillin amidohydrolase EC 3.5.2.6 (Tokyo Chem. Syn. Co., Ltd.) derived from bacteria belonging to the genus Bacillus, the I50 value of the substance KA-6643-A was 0.5 ng/ml and that of the substance KA-6643-B was 12.8 ng/ml.
The I50 value was measured in accordance with the method of C. Reading and M. Cole [Antimicr. Agents and Chemoth. 11, 852-857 (1977)].

Citrobacter 24 (CS ase) [14] = assay: Antibacterial activity-improving action against β-lactam-resistant bacteria (disc, inhibiting zone); type: cell-based; settings: Medium including Citrobacter 24; AB-Pc 1 mg/ml, KA-6643-A or -B 10 γ/ml, alone or combined; 8 mm disc, 37° C., 18 hours
Procedure: (§2) In the Penassay agar (12 g of which was dissolved in 500 ml of distilled water, Kyoei Pharm. Co., Ltd.) were inoculated Escherichia coli EC-1 (PC ase) and citrobacter 24 (CS ase) which were β-lactamase-producing organisms, and 10 ml of the inoculated medium was flowed on a Petri dish of 9 cm in diameter and solidified to give a test medium.
(§3) In this agar medium were placed pulp discs of 8 mm in diameter into which was introduced with […] of aqueous solutions of antibiotics, respectively, followed by culturing at 37° C. for 18 hours and then measuring the diameter of an inhibiting zone around each disc.

[15] = system: Escherichia coli EC-1 (PC ase); assay: as above; type: cell-based; settings: Medium including E. coli EC-1; AB-Pc 1 mg/ml, KA-6643-A or -B 10 γ/ml, alone or combined; 8 mm disc, 37° C., 18 hours
Procedure: as §2, §3

Solubility in solvent = type: physicochemical
[16] = cited from earlier work
[17] = mcilvaine's buffer, pH 4.0, Mcllvaine's buffer
[18] = mcilvaine's buffer, pH 6.0, Mcllvaine's buffer
[19] = mcilvaine's buffer, pH 7.0, Mcllvaine's buffer
[20] = pH 10.0, 0.1M sodium carbonate-sodium hydrogen carbonate buffer
[21] = organic solvents: acetone, chloroform, ethyl acetate, petroleum ether

SMILES: CC1(C)S[C@@H]2[C@H](NC(=O)[C@H](N)c3ccccc3)C(=O)N2[C@H]1C(=O)O [AB-Pc, aminobenzyl penicillin, reference compound]
MIC (Enterobacter cloacae 977): 100 µg/mL (≈ 286 µM)
MIC [1]: 0.78 µg/mL (≈ 2.23 µM)
MIC (Bacillus subtilis 6633): ≤ 0.025 µg/mL
MIC (Serratia marcescens NHL): 50 µg/mL (≈ 143 µM)
MIC (Pseudomonas putida 5121): > 100 µg/mL
MIC [2]: > 100 µg/mL
MIC [3]: > 100 µg/mL
MIC (Citrobacter 24 (CS ase) [4]): > 100 µg/mL
MIC [5]: 6.25 µg/mL (≈ 17.9 µM)
MIC [6]: > 100 µg/mL
MIC (Proteus rettgari 13501): 0.2 µg/mL (≈ 0.572 µM)
MIC [7]: 6.25 µg/mL (≈ 17.9 µM)
MIC [8]: 100 µg/mL (≈ 286 µM)
MIC [9]: > 100 µg/mL
MIC [10]: 0.05 µg/mL (≈ 0.143 µM)
MIC [11]: 12.5 µg/mL (≈ 35.8 µM)
MIC (Proteus morganii 3168): > 100 µg/mL
MIC (Proteus inconstans Km115): 100 µg/mL (≈ 286 µM)
MIC (Hafnia alvei 978): 50 µg/mL (≈ 143 µM)
MIC (Klebsiella 25 (PC ase)): > 100 µg/mL
MIC (Citrobacter 1 (PC ase)): > 100 µg/mL
MIC (Proteus vulgaris 874): > 100 µg/mL
MIC (Klebsiella 32 (CS ase)): > 100 µg/mL

SMILES: CO[C@@]1(NC(=O)Cc2cccs2)C(=O)N2C(C(=O)O)=C(COC(N)=O)CS[C@@H]21 [CFX, cefoxitin, reference compound]
MIC (Enterobacter cloacae 977): > 100 µg/mL
MIC [1]: 1.56 µg/mL (≈ 3.65 µM)
MIC (Bacillus subtilis 6633): 1.56 µg/mL (≈ 3.65 µM)
MIC (Serratia marcescens NHL): 12.5 µg/mL (≈ 29.2 µM)
MIC (Pseudomonas putida 5121): > 100 µg/mL
MIC [2]: 6.25 µg/mL (≈ 14.6 µM)
MIC [3]: 6.25 µg/mL (≈ 14.6 µM)
MIC (Citrobacter 24 (CS ase) [4]): > 100 µg/mL
MIC [5]: > 100 µg/mL
MIC [6]: > 100 µg/mL
MIC (Proteus rettgari 13501): 1.56 µg/mL (≈ 3.65 µM)
MIC [7]: 6.25 µg/mL (≈ 14.6 µM)
MIC [8]: > 100 µg/mL
MIC [9]: 3.13 µg/mL (≈ 7.32 µM)
MIC [10]: 1.56 µg/mL (≈ 3.65 µM)
MIC [11]: 0.78 µg/mL (≈ 1.82 µM)
MIC (Proteus morganii 3168): 6.25 µg/mL (≈ 14.6 µM)
MIC (Proteus inconstans Km115): 6.25 µg/mL (≈ 14.6 µM)
MIC (Hafnia alvei 978): 6.25 µg/mL (≈ 14.6 µM)
MIC (Klebsiella 25 (PC ase)): 6.25 µg/mL (≈ 14.6 µM)
MIC (Citrobacter 1 (PC ase)): > 100 µg/mL
MIC (Proteus vulgaris 874): 6.25 µg/mL (≈ 14.6 µM)
MIC (Klebsiella 32 (CS ase)): > 100 µg/mL

SMILES: CC(=O)N/C=C/[S+]([O-])C1=C(C(=O)O)N2C(=O)C(C(C)OS(=O)(=O)O)C2C1 (stereo not shown) [MM-4550]
half-life period t1/2 ([16]; pH 4): 5.5 h
half-life period t1/2 ([16]; pH 6): 18 h
half-life period t1/2 ([16]; pH 7): 10.5 h
half-life period t1/2 ([16]; pH 7.8): 8.5 h
half-life period t1/2 ([16]; pH 10): 19 h

Further lines, with some results ahead:

half-life [12, 17]: 33 h
half-life [12, 18]: 144 h
half-life [12, 19]: 187 h
half-life ([12]; pH 7.8): 110 h
half-life [12, 20]: 2.8 h
I50 value [13]: 0.5 ng/mL
MIC (Enterobacter cloacae 977): 0.78 µg/mL (≈ 2.28 µM)
MIC [1]: 0.78 µg/mL (≈ 2.28 µM)
MIC (Bacillus subtilis 6633): 0.2 µg/mL (≈ 0.584 µM)
MIC (Serratia marcescens NHL): 0.2 µg/mL (≈ 0.584 µM)
MIC (Pseudomonas putida 5121): 1.56 µg/mL (≈ 4.56 µM)
MIC [2]: 0.05 µg/mL (≈ 0.146 µM)
MIC [3]: 0.05 µg/mL (≈ 0.146 µM)
MIC (Citrobacter 24 (CS ase) [4]): 1.56 µg/mL (≈ 4.56 µM)
MIC [5]: 0.1 µg/mL (≈ 0.292 µM)
MIC [6]: 6.25 µg/mL (≈ 18.3 µM)
MIC (Proteus rettgari 13501): 1.56 µg/mL (≈ 4.56 µM)
MIC [7]: 0.05 µg/mL (≈ 0.146 µM)
MIC [8]: 6.25 µg/mL (≈ 18.3 µM)
MIC [9]: 0.2 µg/mL (≈ 0.584 µM)
MIC [10]: 0.39 µg/mL (≈ 1.14 µM)
MIC [11]: 0.2 µg/mL (≈ 0.584 µM)
MIC (Proteus morganii 3168): 0.39 µg/mL (≈ 1.14 µM)
MIC (Proteus inconstans Km115): 0.78 µg/mL (≈ 2.28 µM)
MIC (Hafnia alvei 978): 0.2 µg/mL (≈ 0.584 µM)
MIC (Klebsiella 25 (PC ase)): 0.78 µg/mL (≈ 2.28 µM)
MIC (Citrobacter 1 (PC ase)): 0.78 µg/mL (≈ 2.28 µM)
MIC (Proteus vulgaris 874): 0.39 µg/mL (≈ 1.14 µM)
MIC (Klebsiella 32 (CS ase)): 3.13 µg/mL (≈ 9.14 µM)
Solubility in solvent (Solubility in solvent; [21]): substantially insoluble
Solubility in solvent (Solubility in solvent; water): Readily soluble
SMILES: CC(=O)NC=C[S+]([O-])C1=C(C(=O)O)N2C(=O)C(C(C)(C)O)C2C1 (stereo not shown) [KA-6643-A]
Diameter of inhibiting zone (Citrobacter 24 (CS ase) [14]): 16.0 mm
Diameter of inhibiting zone [15]: 18.0 mm

half-life [12, 17]: 21.8 h
half-life [12, 18]: 210 h
half-life [12, 19]: 170 h
half-life ([12]; pH 7.8): 130 h
half-life [12, 20]: 7.9 h
I50 value [13]: 12.8 ng/mL
MIC (Enterobacter cloacae 977): 6.25 µg/mL (≈ 14.8 µM)
MIC [1]: 6.25 µg/mL (≈ 14.8 µM)
MIC (Bacillus subtilis 6633): 6.25 µg/mL (≈ 14.8 µM)
MIC (Serratia marcescens NHL): 6.25 µg/mL (≈ 14.8 µM)
MIC (Pseudomonas putida 5121): 100 µg/mL (≈ 237 µM)
MIC [2]: 1.56 µg/mL (≈ 3.69 µM)
MIC [3]: 3.13 µg/mL (≈ 7.41 µM)
MIC (Citrobacter 24 (CS ase) [4]): 12.5 µg/mL (≈ 29.6 µM)
MIC [5]: 3.13 µg/mL (≈ 7.41 µM)
MIC [6]: 50 µg/mL (≈ 118 µM)
MIC (Proteus rettgari 13501): 50 µg/mL (≈ 118 µM)
MIC [7]: 1.56 µg/mL (≈ 3.69 µM)
MIC [8]: 25 µg/mL (≈ 59.2 µM)
MIC [9]: 3.13 µg/mL (≈ 7.41 µM)
MIC [10]: 6.25 µg/mL (≈ 14.8 µM)
MIC [11]: 6.25 µg/mL (≈ 14.8 µM)
MIC (Proteus morganii 3168): 12.5 µg/mL (≈ 29.6 µM)
MIC (Proteus inconstans Km115): 12.5 µg/mL (≈ 29.6 µM)
MIC (Hafnia alvei 978): 6.25 µg/mL (≈ 14.8 µM)
MIC (Klebsiella 25 (PC ase)): 6.25 µg/mL (≈ 14.8 µM)
MIC (Citrobacter 1 (PC ase)): 6.25 µg/mL (≈ 14.8 µM)
MIC (Proteus vulgaris 874): 12.5 µg/mL (≈ 29.6 µM)
MIC (Klebsiella 32 (CS ase)): 12.5 µg/mL (≈ 29.6 µM)
Solubility in solvent (Solubility in solvent; [21]): substantially insoluble
Solubility in solvent (Solubility in solvent; water): Readily soluble
SMILES: CC(=O)NC=C[S+]([O-])C1=C(C(=O)O)N2C(=O)C(C(C)(C)OS(=O)(=O)O)C2C1 (stereo not shown) [KA-6643-B]
